Experimental data reported in patent US9133154B2, “Substituted 3-phenylpropylamine derivatives for the treatment of ophthalmic diseases and disorders” (Acucela Inc., priority 2013, dated 2015).
Values joined by “and” are separate entries in the source; they are usually repeats but may differ in a detail not shown here. Equal values may be shown once.

Test system: accumulation of A2E in the eyes
Test: A2E accumulation model
Type: in vivo, abca4−/−, RPE65 Leu450Leu mice
Details: for Day 91 A2E Concentration, individual animals: 91 days, left eye, animals 1-8, listed as Test cmpd
Procedure: The purpose of this study was to assess the ability of test compounds to inhibit the accumulation of A2E in the eyes of abca4^−/−, RPE65 Leu450Leu mice (ABCR) following 91 days of continuous dosing.
The test compound (R)-3-amino-1-(3-((tetrahydro-2H-pyran-4-yl)methoxy)phenyl)-propan-1-ol (Example 1) was stored in a freezer set to maintain at approximately −20° C.
On the day prior to dosing and once weekly for 13 weeks the test articles were weighed into new empty glass scintillation vials. The compound was dissolved in ethanol (10% of final volume) and then diluted with deionized water (90% of total final volume) resulting in a concentrations of 0.2 mg/mL. This dosing solution was administered to the high dose groups (1 mg/kg). For the low dose groups (0.1 mg/kg) a […] dosing solution was prepared by diluting with vehicle (10% ethanol 90% water) to the appropriate concentration. The dosing solutions were stored in a refrigerator set to maintain between 2 to 8° C. and used for dose administration once per day for one week. The vehicle used for dosing control groups was 10% ethanol 90% deionized water.
Male and female abca4^−/−, and RPE65 Leu450Leu, mice (Charles River Laboratories) were used for this study. The mice were approximately 8-12 week old at the initiation of dosing with a starting average body weight of 19 grams for females and 27 grams for males.
Group 1 animals (Time zero for A2E accumulation) were euthanized with carbon dioxide followed by cervical dislocation on the first day of dosing. Immediately following the cervical dislocation both eyes of the animal was removed and transferred into separate tubes, flash frozen in liquid nitrogen and stored in the dark at −80° C. until processing and analysis.
The remaining groups (2-4) were dosed once each day for 13 weeks. When dosed each animal was administered a 5 mL/kg dose of the appropriate test compound or vehicle via oral gavage using a 1 mL syringe fitted with a 20 gauge oral gavage needle. Upon the completion of the study, animals were euthanized with carbon dioxide followed by cervical dislocation. Immediately following the cervical dislocation both eyes of the animal was removed and transferred into separate tubes, flash frozen in liquid nitrogen and stored in the dark at −80° C. until processing and analysis for A2E concentration.
All sample processing procedures were performed in the dark under red light.
Extracted samples were analyzed using an Agilent 1100 HPLC system according to the procedure outlined in Table 21 (See Below)
HPLC analysis of the eyes looks at the peak area units of the A2E present in the eyes following extraction as described above.
Data analysis % inhibition (drug vs. recovery control), % control (drug vs. light control), and One-way ANOVA (followed by Tukey's Multiple Comparison) were performed using peak area units and performed by Prism software. Data are represented as mean and standard deviation.

In the case of `NCC[C@@H](O)c1cccc(OCC2CCOCC2)c1` [Example 1], the “Day 91 A2E Concentration, individual animals” value (0.1 mg/kg oral once daily) is reported as 9.64 Pico Moles/eye and 8.97 Pico Moles/eye and 10.23 Pico Moles/eye and 8.42 Pico Moles/eye and 8.49 Pico Moles/eye and 9.6 Pico Moles/eye and 11.68 Pico Moles/eye and 10.27 Pico Moles/eye, the “Day 91 A2E Concentration, individual animals” value (1.0 mg/kg oral once daily) is reported as 6.49 Pico Moles/eye and 7.68 Pico Moles/eye and 7.75 Pico Moles/eye and 8.87 Pico Moles/eye and 7.56 Pico Moles/eye and 8.01 Pico Moles/eye and 8.86 Pico Moles/eye and 9.49 Pico Moles/eye and the “effect on the accumulation of A2E” value (91 days of oral dosing at 0.1 mg/kg and 1.0 mg/kg) is reported as “statistically significant inhibitory effects on the accumulation of A2E”. The inhibition at 0.1 mg/kg (Mus musculus, 2184 h, 0.1 mg/kg daily oral administration for 91 days) was 46.4% and the inhibition at 1 mg/kg (Mus musculus, 2184 h, 1 mg/kg daily oral administration for 91 days) was 65%.
